The target of the assay is T1, M-phase inducer phosphatase 2 (Homo sapiens, UniProt P30305).
T1 sequence (P30305 whole entry): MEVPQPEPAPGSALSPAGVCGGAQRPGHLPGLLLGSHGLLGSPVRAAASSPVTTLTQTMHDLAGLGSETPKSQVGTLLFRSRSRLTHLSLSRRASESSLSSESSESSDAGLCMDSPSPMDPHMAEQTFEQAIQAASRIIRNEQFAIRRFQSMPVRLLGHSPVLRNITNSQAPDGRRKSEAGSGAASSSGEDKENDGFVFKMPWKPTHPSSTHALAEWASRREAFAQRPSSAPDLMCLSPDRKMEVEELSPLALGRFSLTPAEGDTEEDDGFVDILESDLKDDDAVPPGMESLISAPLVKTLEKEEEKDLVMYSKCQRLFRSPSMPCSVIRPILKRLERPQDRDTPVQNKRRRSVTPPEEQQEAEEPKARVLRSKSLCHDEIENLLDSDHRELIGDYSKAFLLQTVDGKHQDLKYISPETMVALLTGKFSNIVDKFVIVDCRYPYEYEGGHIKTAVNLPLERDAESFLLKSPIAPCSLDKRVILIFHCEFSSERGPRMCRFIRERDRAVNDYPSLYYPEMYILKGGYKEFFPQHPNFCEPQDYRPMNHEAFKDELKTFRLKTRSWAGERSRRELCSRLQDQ
The assay is described as follows: Compound was measured for its inhibitory activity against Cell division cycle 25B.

`COc1cccc(COc2c(I)cc3c(c2I)CN(C(=O)/C=C/c2ccc4c(c2)OCO4)[C@H](C(=O)O)C3)c1` came in with an IC50 of 58 µM.

`O=C(O)[C@@H]1Cc2cc(I)c(OCc3ccc(Cl)cc3Cl)c(I)c2CN1C(=O)/C=C/c1cccc(C(F)(F)F)c1`: the half-maximal inhibitory concentration (IC50) amounted to 15 µM.

Take `O=C(O)[C@@H]1Cc2cc(I)c(OCc3ccc(Cl)cc3Cl)c(I)c2CN1C(=O)/C=C/c1ccc(Br)cc1`: the IC50 stood at 23 µM.

In turn, `O=C(O)[C@@H]1Cc2cc(I)c(OCCCCl)c(I)c2CN1C(=O)/C=C/c1ccc(Br)cc1` registered an IC50 of 70 µM.

In turn, `O=C(O)[C@@H]1Cc2cc(I)c(OCc3ccccc3F)c(I)c2CN1C(=O)/C=C/c1ccc(Cl)c(Cl)c1` displayed an IC50 of 75 µM.

In turn, `COc1cccc(COc2c(I)cc3c(c2I)CN(C(=O)/C=C/c2ccc([N+](=O)[O-])cc2)[C@H](C(=O)O)C3)c1` returned an IC50 of 59 µM.

On to `O=C(O)[C@@H]1Cc2cc(I)c(OCc3ccc(C(F)(F)F)cc3)c(I)c2CN1C(=O)/C=C/c1ccc2c(c1)OCO2`, for which half-maximal inhibition (IC50) was put at 32 µM.

In the case of `O=C(O)[C@@H]1Cc2cc(I)c(OCCCCl)c(I)c2CN1C(=O)/C(F)=C/c1ccccc1`, the IC50 is 100 µM.

On to `O=C(O)[C@@H]1Cc2cc(I)c(OCc3ccc(Cl)cc3Cl)c(I)c2CN1C(=O)/C=C/c1ccc2c(c1)OCO2`, for which half-maximal inhibition (IC50) was put at 60 µM.

As for `O=C(COc1c(I)cc2c(c1I)CN(C(=O)/C=C/c1ccccc1Cl)[C@H](C(=O)O)C2)OCc1ccccc1`, it took 70 µM to reach half-maximal inhibition (IC50).

As for `O=C(O)[C@@H]1Cc2cc(I)c(OCc3c(Cl)cccc3Cl)c(I)c2CN1C(=O)c1cccnc1Cl`, the midpoint of inhibition, the IC50, lay at 45 µM.

`O=C(O)[C@@H]1Cc2cc(I)c(OCc3c(Cl)cccc3Cl)c(I)c2CN1C(=O)/C=C/c1ccc(Cl)c(Cl)c1` came in with an IC50 of 55 µM.

Take `O=C(COc1c(I)cc2c(c1I)CN(C(=O)/C=C/c1cccc(Br)c1)[C@H](C(=O)O)C2)OCc1ccccc1`: the 50% inhibitory concentration (IC50) worked out at 90 µM.

For the molecule `O=C(O)[C@@H]1Cc2cc(I)c(OCc3ccc(Cl)cc3Cl)c(I)c2CN1C(=O)/C=C/c1ccccc1Br`, half-maximal inhibition (IC50) required 33 µM.

`Cc1ccc(/C=C/C(=O)N2Cc3c(cc(I)c(OCc4cccc(C(F)(F)F)c4)c3I)C[C@H]2C(=O)O)cc1` yielded an IC50 of 30 µM.

`O=C(O)[C@@H]1Cc2cc(I)c(OCc3ccc(Cl)cc3Cl)c(I)c2CN1C(=O)/C=C/c1cccc(F)c1` registered an IC50 of 40 µM.

For `O=C(O)[C@@H]1Cc2cc(I)c(OCc3ccc(Cl)cc3Cl)c(I)c2CN1C(=O)/C=C/c1cc(Cl)cc(Cl)c1`, the IC50 amounted to 23 µM.

Take `O=C(O)[C@@H]1Cc2cc(I)c(OCCCCl)c(I)c2CN1C(=O)/C=C/c1cccc(Br)c1`: half-maximal inhibition (IC50) required 70 µM.

As to `O=C(O)[C@@H]1Cc2cc(I)c(OCc3cccc(C(F)(F)F)c3)c(I)c2CN1C(=O)/C=C/c1cccc(F)c1`, the IC50 worked out at 45 µM.

On to `O=C(O)[C@@H]1Cc2cc(I)c(OCc3ccccc3F)c(I)c2CN1C(=O)/C=C/c1cccc(F)c1`, for which the IC50 came out at 75 µM.

Turning to `O=C(O)[C@@H]1Cc2cc(I)c(OCc3ccccc3F)c(I)c2CN1C(=O)c1cccnc1Cl`, the midpoint of inhibition, the IC50, lay at 90 µM.

Consider `O=C(O)[C@@H]1Cc2cc(I)c(OCc3ccc(C(F)(F)F)cc3)c(I)c2CN1C(=O)/C=C/c1ccccc1F`, for which the half-maximal inhibitory concentration (IC50) came out at 55 µM.

In turn, `O=C(O)[C@@H]1Cc2cc(I)c(OCc3c(Cl)cccc3Cl)c(I)c2CN1C(=O)/C=C/c1cccc(Cl)c1` gave an IC50 of 20 µM.

On to `O=C(O)[C@@H]1Cc2cc(I)c(OCCCCl)c(I)c2CN1C(=O)/C=C/c1ccc(Cl)cc1Cl`, for which the IC50 came out at 52 µM.

`O=C(O)[C@@H]1Cc2cc(I)c(OCc3cccc(C(F)(F)F)c3)c(I)c2CN1C(=O)/C=C/c1ccc2c(c1)OCO2` gave an IC50 of 66 µM.

Molecule `O=C(O)[C@@H]1Cc2cc(I)c(OCc3cccc(C(F)(F)F)c3)c(I)c2CN1C(=O)/C=C/c1ccc(Cl)c(Cl)c1` had an IC50 of 75 µM.

Turning to `O=C(O)[C@@H]1Cc2cc(I)c(OCc3c(Cl)cccc3Cl)c(I)c2CN1C(=O)/C=C/c1cccc(F)c1`, it took 45 µM to reach half-maximal inhibition (IC50).

The molecule `O=C(O)[C@@H]1Cc2cc(I)c(OCc3ccc(C(F)(F)F)cc3)c(I)c2CN1C(=O)/C=C/c1ccccc1C(F)(F)F` came in with an IC50 of 27 µM.

The record behind these values is ChEMBL document CHEMBL1133317, “The solid phase synthesis of tetrahydroisoquinolines having cdc25B inhibitory activity” (Bioorg Med Chem Lett, 2000).
